Assay results reported in patent publication US11725036B2, “Modified lipidated relaxin B chain peptides and their therapeutic use” (Sanofi, priority 2018, dated 2023).
Starred links: 1 amine or outer side, 2 acyl side, 3 side chain; linkers in the order of their positions; H or OH if unused. Non-standard residues stand in square brackets, D forms with d. Residues, ends and D or L forms follow the SMILES beside them. Groups on a side chain read outwards from the residue. *: point of attachment. X16 = CCCCCCCCCCCCCCCCCC(=O)N[C@@H](CCC(=O)N[C@@H](CCC(=O)N[C@@H](CCC(=O)NCCCOCCOCCOCCCNC(=O)CCC(=O)NCCCOCCOCCOCCCNC(=O)CCC(=O)NCCCOCCOCCOCCCNC(=O)CCC(=O)NCCCOCCOCCOCCCN*)C(=O)O)C(=O)O)C(=O)O; X1 = CCCCCCCCCCCCCCCC(=O)N[C@@H](CCC(=O)N[C@@H](CCC(=O)N[C@@H](CCC(=O)NCCCOCCOCCOCCCNC(=O)CCC(=O)NCCCOCCOCCOCCCNC(=O)CCC(=O)NCCCOCCOCCOCCCN*)C(=O)O)C(=O)O)C(=O)O; Suc = O=C(CCC(=O)[*:2])[*:1]; αMeK = C[C@](N)(CCCCN)C(=O)O; Aib = CC(C)(N)C(=O)O

Biological target: T1, RXFP1 (Homo sapiens, UniProt Q9HBX9)
T1 construct: OVCAR5 cells expressing endogenous RXFP1; endogenous in cells; host or cells: OVCAR5
T1 sequence (Q9HBX9 1-757): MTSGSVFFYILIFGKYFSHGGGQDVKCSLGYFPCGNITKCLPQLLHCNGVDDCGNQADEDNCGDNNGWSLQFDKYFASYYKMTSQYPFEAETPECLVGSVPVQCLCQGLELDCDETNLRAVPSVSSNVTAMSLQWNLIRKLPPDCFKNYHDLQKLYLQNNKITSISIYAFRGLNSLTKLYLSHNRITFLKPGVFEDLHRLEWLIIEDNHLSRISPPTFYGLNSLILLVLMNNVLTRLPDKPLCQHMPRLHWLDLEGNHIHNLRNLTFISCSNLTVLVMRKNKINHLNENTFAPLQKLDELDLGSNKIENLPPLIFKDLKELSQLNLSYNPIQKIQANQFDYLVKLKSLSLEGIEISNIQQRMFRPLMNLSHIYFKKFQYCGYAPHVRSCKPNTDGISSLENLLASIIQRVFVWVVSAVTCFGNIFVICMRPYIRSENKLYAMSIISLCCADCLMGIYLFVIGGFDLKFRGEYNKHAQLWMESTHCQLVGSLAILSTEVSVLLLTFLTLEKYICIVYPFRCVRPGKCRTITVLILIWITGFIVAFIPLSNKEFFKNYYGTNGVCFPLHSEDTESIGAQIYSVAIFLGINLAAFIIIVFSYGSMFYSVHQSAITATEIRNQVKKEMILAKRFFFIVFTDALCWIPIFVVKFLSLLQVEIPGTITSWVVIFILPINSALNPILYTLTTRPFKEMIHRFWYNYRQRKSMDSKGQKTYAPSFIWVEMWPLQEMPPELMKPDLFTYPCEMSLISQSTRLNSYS
Experiment: OVCAR5 cAMP assay (HTRF)
Format: cell-based
Settings: for Emax: OVCAR 5 cells, maximal cAMP relative to H2-relaxin; for EC50: OVCAR 5 cells expressing endogenous RXFP1, cAMP readout
Description: OVCAR5 cells expressing endogenous RXFP1 were used to test RXP1 agonist properties of peptides of the invention, and in particular of the peptides of sequence SEQ ID NO: 1-97.
Since RXFP1 is a Gs coupled GPCR, cAMP was used as readout of RXFP1 activation.
Isobutyl Methyl Xanthine (IBMX) was used to inhibit phosphodiesterase activity facilitating cAMP measurements. HTRF (Homogenous Time Resolved Fluorescence) technology was used to detect cAMP due to its great sensitivity.
In summary, OVCAR5 were grown in regular medium (RPMI) containing 10% fetal calf serum (FCS) and 1% antibiotics (penicillin/streptomycin).
Before the experiments, cells were detached with accutase and incubated for 40 minutes at 37° C. with 1 mM (3-isobutyl-1-methylxanthine) IBMX.
Cells were then distributed in 384 black well plates containing increasing concentrations of the different peptides in a fix volume of medium (without FCS).
After an incubation of 30 min at 37° C. in an humid incubator in 5% CO2, the reaction was stopped by adding a fixed volume of a solution containing a lysis buffer and cAMP-D2 (cAMP labeled with the dye d2) and the anti cAMP antibody linked to Europium and used for cAMP detection.
Readout of the experiment were performed on a fluorimeter allowing HTRF measurement. Activation curves were generated by plotting the intracellular value of cAMP versus log 10 of the compound concentration.
The 50% activation concentration (EC50) was calculated by nonlinear regression using the sigmoidal dose-response (variable slope) equation with Prism 5 software.
Emax % was determined as the maximal intracellular value of cAMP for test compound (upper limit of cAMP vs concentration curve) divided by the maximal intracellular value of cAMP for H2-relaxin determined in the same test occasion multiplied by 100. Emax %=100×[cAMPtest cpd]/[cAMPH2-Rlx]

SMILES | Emax [%] | EC50 [nM]
CCCCCCCCCCCCCCCC(=O)N[C@@H](CCC(=O)N[C@@H](CCC(=O)N[C@@H](CCC(=O)NCCCOCCOCCOCCCNC(=O)CCC(=O)NCCCOCCOCCOCCCNC(=O)CCC(=O)NCCCOCCOCCOCCCNC(=O)CCC(=O)NCCCC[C@H](NC(=O)CNC(=O)[C@H](CCC(=O)O)NC(=O)C(C)(C)NC(=O)C(C)(C)NC(=O)[C@@H](NC(=O)[C@H](CCCCNC(C)=O)NC(=O)[C@H](C)NC(=O)[C@H](CCCNC(=N)N)NC(=O)[C@@H](NC(=O)[C@H](CCCCN)NC(=O)[C@H](CCC(=O)O)NC(=O)[C@H](CCCNC(=N)N)NC(=O)CNC(=O)[C@H](CCC(=O)O)NC(=O)[C@H](CC(C)C)NC(C)=O)C(C)C)[C@@H](C)CC)C(=O)N[C@@H](CO)C(=O)N[C@H](C(=O)N[C@@H](Cc1c[nH]c2ccccc12)C(=O)N[C@@H](CCCCNC(C)=O)C(=O)NC(C)(C)C(=O)N[C@@H](CCCNC(=N)N)C(=O)N[C@@H](C)C(=O)N[C@@H](CCCCNC(C)=O)C(N)=O)[C@@H](C)O)C(=O)O)C(=O)O)C(=O)O [compound 66] (Ac-LEGREKVRAK(Ac)I[Aib][Aib]EGK([Suc-X1])STWK(Ac)[Aib]RAK(Ac)-NH2) | 93 | –
CCCCCCCCCCCCCCCC(=O)N[C@@H](CCC(=O)N[C@@H](CCC(=O)N[C@@H](CCC(=O)NCCCOCCOCCOCCCNC(=O)CCC(=O)NCCCOCCOCCOCCCNC(=O)CCC(=O)NCCCOCCOCCOCCCNC(=O)CCC(=O)NCCCC[C@H](NC(=O)CNC(=O)[C@H](CCC(=O)O)NC(=O)C(C)(C)NC(=O)C(C)(C)NC(=O)[C@@H](NC(=O)[C@H](CCCCNC(C)=O)NC(=O)[C@H](C)NC(=O)[C@H](CCCNC(=N)N)NC(=O)[C@@H](NC(=O)[C@H](CCCCN)NC(=O)[C@H](CCC(=O)O)NC(=O)[C@H](CCCNC(=N)N)NC(=O)CNC(=O)[C@H](CCC(=O)O)NC(=O)[C@H](CC(C)C)NC(C)=O)C(C)C)[C@@H](C)CC)C(=O)N[C@@H](CO)C(=O)N[C@@H](CCCCN)C(=O)N[C@@H](Cc1c[nH]c2ccccc12)C(=O)N[C@@H](CO)C(=O)NC(C)(C)C(=O)N[C@@H](CCCNC(=N)N)C(=O)N[C@@H](CCCCN)C(=O)N[C@@H](CCCCNC(C)=O)C(N)=O)C(=O)O)C(=O)O)C(=O)O [compound 83] (Ac-LEGREKVRAK(Ac)I[Aib][Aib]EGK([Suc-X1])SKWS[Aib]RKK(Ac)-NH2) | 94 | 0.25
CCCCCCCCCCCCCCCC(=O)N[C@@H](CCC(=O)N[C@@H](CCC(=O)N[C@@H](CCC(=O)NCCCOCCOCCOCCCNC(=O)CCC(=O)NCCCOCCOCCOCCCNC(=O)CCC(=O)NCCCOCCOCCOCCCNC(=O)CCC(=O)NCCCC[C@H](NC(=O)CNC(=O)[C@H](CCC(=O)O)NC(=O)C(C)(C)NC(=O)C(C)(C)NC(=O)[C@@H](NC(=O)[C@H](CCCCNC(C)=O)NC(=O)[C@H](C)NC(=O)[C@H](CCCNC(=N)N)NC(=O)[C@@H](NC(=O)[C@H](CCCCN)NC(=O)[C@H](CCC(=O)O)NC(=O)[C@H](CCCNC(=N)N)NC(=O)CNC(=O)[C@H](CCC(=O)O)NC(=O)[C@H](CC(C)C)NC(C)=O)C(C)C)[C@@H](C)CC)C(=O)N[C@@H](CO)C(=O)N[C@H](C(=O)N[C@@H](Cc1ccccc1)C(=O)N[C@H](C(=O)N[C@@H](CCCNC(=N)N)C(=O)N[C@@H](CCCNC(=N)N)C(=O)N[C@@H](C)C(=O)N[C@@H](CCCCNC(C)=O)C(N)=O)C(C)C)[C@@H](C)O)C(=O)O)C(=O)O)C(=O)O [compound 94] (Ac-LEGREKVRAK(Ac)I[Aib][Aib]EGK([Suc-X1])STFVRRAK(Ac)-NH2) | 88 | 1.74
CCCCCCCCCCCCCCCC(=O)N[C@@H](CCC(=O)N[C@@H](CCC(=O)N[C@@H](CCC(=O)NCCCOCCOCCOCCCNC(=O)CCC(=O)NCCCOCCOCCOCCCNC(=O)CCC(=O)NCCCOCCOCCOCCCNC(=O)CCC(=O)NCCCC[C@H](NC(=O)CNC(=O)[C@H](CCC(=O)O)NC(=O)C(C)(C)NC(=O)C(C)(C)NC(=O)[C@@H](NC(=O)[C@H](CCCCNC(C)=O)NC(=O)[C@H](C)NC(=O)[C@H](CCCNC(=N)N)NC(=O)[C@@H](NC(=O)[C@H](Cc1ccccc1)NC(=O)[C@H](CCC(=O)O)NC(=O)[C@H](CCCNC(=N)N)NC(=O)CNC(=O)[C@H](CCC(=O)O)NC(=O)[C@H](CC(C)C)NC(C)=O)C(C)C)[C@@H](C)CC)C(=O)N[C@@H](CO)C(=O)N[C@H](C(=O)N[C@@H](Cc1c[nH]c2ccccc12)C(=O)N[C@@H](CO)C(=O)NC(C)(C)C(=O)N[C@@H](CCCNC(=N)N)C(=O)N[C@@H](CCCNC(=N)N)C(=O)N[C@@H](CCCCNC(C)=O)C(N)=O)[C@@H](C)O)C(=O)O)C(=O)O)C(=O)O [compound 39] (Ac-LEGREFVRAK(Ac)I[Aib][Aib]EGK([Suc-X1])STWS[Aib]RRK(Ac)-NH2) | 93 | 8.7

The remaining lines, values ahead:

Emax [%] | EC50 [nM] | SMILES
98 | 1.8 | CCCCCCCCCCCCCCCC(=O)N[C@@H](CCC(=O)N[C@@H](CCC(=O)N[C@@H](CCC(=O)NCCCOCCOCCOCCCNC(=O)CCC(=O)NCCCOCCOCCOCCCNC(=O)CCC(=O)NCCCOCCOCCOCCCNC(=O)CCC(=O)NCCCC[C@H](NC(=O)CNC(=O)[C@H](CCC(=O)O)NC(=O)C(C)(C)NC(=O)C(C)(C)NC(=O)[C@@H](NC(=O)[C@H](CCCCNC(C)=O)NC(=O)[C@H](C)NC(=O)[C@H](CCCNC(=N)N)NC(=O)[C@@H](NC(=O)[C@H](CCCNC(=N)N)NC(=O)[C@H](CCC(=O)O)NC(=O)[C@H](CCCNC(=N)N)NC(=O)CNC(=O)[C@H](CCC(=O)O)NC(=O)[C@H](CC(C)C)NC(C)=O)C(C)C)[C@@H](C)CC)C(=O)N[C@@H](CO)C(=O)N[C@H](C(=O)N[C@@H](Cc1ccccc1)C(=O)N[C@@H](CO)C(=O)N[C@@](C)(CCCCN)C(=O)N[C@@H](CCCNC(=N)N)C(=O)N[C@@H](C)C(=O)N[C@@H](CCCCNC(C)=O)C(N)=O)[C@@H](C)O)C(=O)O)C(=O)O)C(=O)O [compound 27] (Ac-LEGRERVRAK(Ac)I[Aib][Aib]EGK([Suc-X1])STFS[αMeK]RAK(Ac)-NH2)
98 | – | CCCCCCCCCCCCCCCCCC(=O)N[C@@H](CCC(=O)N[C@@H](CCC(=O)N[C@@H](CCC(=O)NCCCOCCOCCOCCCNC(=O)CCC(=O)NCCCOCCOCCOCCCNC(=O)CCC(=O)NCCCOCCOCCOCCCNC(=O)CCC(=O)NCCCOCCOCCOCCCNC(=O)CCC(=O)NCCCC[C@H](NC(=O)CNC(=O)[C@H](CCC(=O)O)NC(=O)C(C)(C)NC(=O)C(C)(C)NC(=O)[C@@H](NC(=O)[C@H](CCCCNC(C)=O)NC(=O)[C@H](C)NC(=O)[C@H](CCCNC(=N)N)NC(=O)[C@@H](NC(=O)[C@H](CCCCN)NC(=O)[C@H](CCC(=O)O)NC(=O)[C@H](CCCNC(=N)N)NC(=O)CNC(=O)[C@H](CCC(=O)O)NC(=O)[C@H](CC(C)C)NC(C)=O)C(C)C)[C@@H](C)CC)C(=O)N[C@@H](CO)C(=O)N[C@H](C(=O)N[C@@H](Cc1c[nH]c2ccccc12)C(=O)N[C@@H](CO)C(=O)NC(C)(C)C(=O)N[C@@H](CCCNC(=N)N)C(=O)N[C@@H](CCCCN)C(=O)N[C@@H](CCCCNC(C)=O)C(N)=O)[C@@H](C)O)C(=O)O)C(=O)O)C(=O)O [compound 58] (Ac-LEGREKVRAK(Ac)I[Aib][Aib]EGK([Suc-X16])STWS[Aib]RKK(Ac)-NH2)
96 | 0.45 | CCCCCCCCCCCCCCCC(=O)N[C@@H](CCC(=O)N[C@@H](CCC(=O)N[C@@H](CCC(=O)NCCCOCCOCCOCCCNC(=O)CCC(=O)NCCCOCCOCCOCCCNC(=O)CCC(=O)NCCCOCCOCCOCCCNC(=O)CCC(=O)NCCCC[C@H](NC(=O)CNC(=O)[C@H](CCC(=O)O)NC(=O)C(C)(C)NC(=O)C(C)(C)NC(=O)[C@@H](NC(=O)[C@H](CCC(N)=O)NC(=O)[C@H](C)NC(=O)[C@H](CCCNC(=N)N)NC(=O)[C@@H](NC(=O)[C@H](CCCCN)NC(=O)[C@H](CCC(=O)O)NC(=O)[C@H](CCCNC(=N)N)NC(=O)CNC(=O)[C@H](CCC(=O)O)NC(=O)[C@H](CC(C)C)NC(C)=O)C(C)C)[C@@H](C)CC)C(=O)N[C@@H](CO)C(=O)N[C@H](C(=O)N[C@@H](Cc1ccccc1)C(=O)N[C@@H](CO)C(=O)N[C@@](C)(CCCCN)C(=O)N[C@@H](CCCNC(=N)N)C(=O)N[C@@H](C)C(=O)N[C@@H](CCCCNC(C)=O)C(N)=O)[C@@H](C)O)C(=O)O)C(=O)O)C(=O)O [compound 48] (Ac-LEGREKVRAQI[Aib][Aib]EGK([Suc-X1])STFS[αMeK]RAK(Ac)-NH2)
